Patent US20230374068A1, “COMPOSITIONS AND METHODS FOR TREATING A DISEASE” (RAMOT AT TEL AVIV UNIVERSITY LTD., priority 2021, published 2023)
“Also recorded” adds a separate entry of the source.

Experiments:
PC12 cells = test: SG distribution, cell morphology and primary cilia in PC12 cells expressing CA Rab12 (confocal microscopy); format: cell-based
Description: Cells (4×10^4 cells/well) were seeded onto 12 mm round glass coverslips in a 24-well plate. Next day, cells were transiently co-transfected using lipofectamine 2000 with 500 ng of plasmid encoding NPY-mRFP and 1000 ng of pEGFP-C1-Rab12(Q100L), a GTP-locked, constitutively active mutant of Rab12 (herein: CA Rab12). After transfection, cells were either left untreated (UT) or incubated for 48 hours at 37° C. with 100 nM rotenone. After 48 hours, cells were incubated for an additional hour at 37° C. with or without 100 μM of TAT-125 peptide (i.e. […], SEQ ID NO: 14), as indicated. Cells were then fixed and immunostained with polyclonal antibodies directed against Arl13b (primary cilium marker), followed by Hilyte Plus 647-conjugated goat anti-rabbit IgG. Cells were visualized by confocal microscopy. The right panels are the overlap of the confocal images on the corresponding brightfield.
RBL cells (4×10^5 cells/well) or PC12 cells (4×10^4 cells/well) were grown on 12-mm round glass coverslips, washed three times with PBS, and fixed for 20 min at room temperature with 4% paraformaldehyde in PBS. […] After washing, the cells were mounted (Golden Bridge Life Science, Mukilteo City, WA) and analyzed using a LEICA SP8 STED high resolution laser scanning confocal microscope (Leica, Wetzlar, Germany) using a 63 oil/1.4 numerical aperture objective. […]

[1] = target: T1, Rab12 interaction with RILP (Mus musculus, UniProt Q5ND29); test: Peptide inhibition of Rab12 pulldown by GST-RILP from RBL cell lysates; format: binding, rat; details: 100 μM peptide, 4 h at 4° C., then RBL cell lysate overnight
T1 construct: made in house
T1 sequence (Q5ND29 1-369): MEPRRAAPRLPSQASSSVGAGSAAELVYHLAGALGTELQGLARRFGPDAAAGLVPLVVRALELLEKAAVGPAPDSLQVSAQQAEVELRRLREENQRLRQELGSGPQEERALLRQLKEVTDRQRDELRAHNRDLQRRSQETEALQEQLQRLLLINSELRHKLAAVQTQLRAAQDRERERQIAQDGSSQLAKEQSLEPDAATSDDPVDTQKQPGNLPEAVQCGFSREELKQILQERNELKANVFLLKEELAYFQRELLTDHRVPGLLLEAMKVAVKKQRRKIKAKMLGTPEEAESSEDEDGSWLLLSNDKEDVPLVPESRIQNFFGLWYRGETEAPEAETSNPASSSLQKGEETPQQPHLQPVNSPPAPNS
Description: At the end of the incubation period, beads were sedimented by centrifugation at 5000×g for 5 min at 4° C., washed four times with 50 mM Hepes pH 7.4, 150 mM NaCl, 1 mM MgCl2, 0.2% Triton X-100, protease inhibitor mixture, 1 mM PMSF, 2 mM Na3VO4, 10 mM NaPPi and 80 mM β-glycerophosphate and suspended in 1× sample buffer and boiled for 7 minutes. Proteins were resolved by SDS-PAGE and analyzed by immunoblotting with anti Rab12 antibodies. […] The results are the average pulldown±SEM derived from two independent experiments.
Pulldown assays were performed as previously described 2. Briefly, 20 μg of GST fusion proteins or control GST immobilized on Glutathione Agarose beads were incubated for 18 hours at 4° C. with RBL cell lysates (500 μg) prepared in buffer C (50 mM Hepes pH 7.4, 150 mM NaCl, 1 mM MgCl2, 1% TritonX100, 1 mM PMSF, protease inhibitor mixture, 2 mM Na3VO4) in the presence of 0.5 mM GTPγS. At the end of the incubation period, beads were sedimented by centrifugation at 5000×g for 5 minutes at 4° C., washed 4 times in buffer C with 0.2% TritonX100, and finally suspended in sample buffer, boiled for 7 minutes, and subjected to SDS-PAGE and immunoblotting. […]

Rab12 phosphorylation [2] = test: Rab12 phosphorylation in Ion/TPA-activated BMMCs with inhibitors (western blot); format: cell-based, mouse; details: 1 μM inhibitor, 30 min pre-incubation, then Ion/TPA 30 min
Description: BMMCs were seeded in 10 cm plates overnight in growth medium or medium containing 400 nM TPA. Next day cells were collected and washed three times with Tyrode's buffer in Eppendorf tubes. Cells were subsequently incubated for 30 minutes at 37° C. with vehicle (0.1% DMSO) or with 10 μM GSK2578215A (GSK), 1 μM Go6976, 2 mM EGTA or 1 μM MRT68921, as indicated. Cells were then left untreated (UT) or treated for additional 30 minutes at 37° C., with a combination of 1 μM 4-bromo-calcium ionophore A23187 (Ion) and 50 nM of the phorbol ester (TPA), in the absence or presence of the inhibitors. Cells were then washed three times with PBS, lysed with lysis buffer containing phosphatase inhibitors and cell lysates analysed by western blotting with anti phosphoRab12 antibodies followed by reprobing with anti Rab12 antibodies. A representative blot is shown.
The results are the relative ratio of phosphorylated to total Rab12. […]
Samples were separated by SDS-PAGE using 10-12% polyacrylamide gels and electrophoretically transferred to nitrocellulose membranes. […] The intensity of the immunoreactive bands was quantified using ImageJ software.
Cells (RBL, BMMCs or SH-SY5Y) were grown overnight in growth medium or medium containing 400 nM TPA, where indicated. […] Cells were then washed with PBS and lysed for 30 minutes in lysis buffer D. Cell lysates were analyzed by western blotting. […]

Rab12 phosphorylation [3] = test: Rab12 phosphorylation in PC12 cells, Ion/TPA- or rotenone-treated (western blot); format: cell-based
Description: Cells that were incubated in the absence of rotenone were then left untreated or incubated with a combination of 1 μM 4-bromo-calcium ionophore A23187 (Ion) and 50 nM of the phorbol ester (TPA) for 30 minutes at 37° C. Cells were then washed three times with PBS, lysed with lysis buffer containing phosphatase inhibitors and cell lysates analysed by western blotting with anti phosphoRab12 antibodies followed by re-probing with anti GAPDH antibodies. […] The results are the fold increase in Rab12 phosphorylation based on the ratio of phosphorylated Rab12 to GAPDH.
Samples were separated by SDS-PAGE using 10-12% polyacrylamide gels and electrophoretically transferred to nitrocellulose membranes. Blots were blocked for 20 min in TBST (10 mM Tris-HCl, pH 8.0, 150 mM NaCl, and 0.05% Tween 20) containing 5% skim-milk, followed by overnight incubation at 4° C. with the desired primary Abs. Blots were washed three times and incubated for 1 hour at room temperature with HRP-conjugated secondary Ab. Immunoreactive bands were visualized by the ECL method according to standard procedures. The intensity of the immunoreactive bands was quantified using ImageJ software.
For Rab12 phosphorylation in PC12 cells, cells were grown for 48 hours either in growth medium or in medium supplemented with 1 μM LY333531 or 10 μM GSK2578215A in the absence or presence of 100 nM rotenone. For Ion/TPA-stimulated phosphorylation, cells grown in medium only or medium containing inhibitors, were stimulated with 1 μM 4-bromo-calcium ionophore A23187 (Ion) and 50 nM of the phorbol ester (TPA) for 30 minutes. Cells were processed as above.

[4] = target: T2, endogenous Rab12 of RBL cells (rat, UniProt P35284 49-291, limits assumed); test: GST pulldown of endogenous Rab12 from resting RBL cell lysates, anti-Rab12 immunoblot
T2 construct: Total Rab12 pulled down from cell lysates (blot reprobed with anti-Rab12)
T2 sequence (looked up): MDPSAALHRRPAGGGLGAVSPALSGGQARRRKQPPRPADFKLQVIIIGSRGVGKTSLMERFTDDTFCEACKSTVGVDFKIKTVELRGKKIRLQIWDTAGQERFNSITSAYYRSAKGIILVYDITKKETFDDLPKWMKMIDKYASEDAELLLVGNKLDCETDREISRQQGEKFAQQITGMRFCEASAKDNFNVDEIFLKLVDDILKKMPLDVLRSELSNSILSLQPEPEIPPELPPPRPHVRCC
Description: Cells were then lysed and 500 μg of cell lysate were incubated overnight at 4° C. with either GST, GST-RILP, GST-RILP-L1 or GST-RILP-L2, immobilized on glutathione agarose beads, as indicated. At the end of the incubation period, beads were sedimented by centrifugation at 5000×g for 5 minutes at 4° C., washed four times with buffer containing 50 mM Hepes pH 7.4, 150 mM NaCl, 1 mM MgCl₂, 0.2% Triton X-100, protease inhibitor mixture, 1 mM PMSF, 2 mM Na₃VO₄, 10 mM NaPPi and 80 mM β-glycerophosphate and suspended in 1× sample buffer and boiled for 7 minutes. Proteins were resolved by SDS-PAGE and analyzed by immunoblotting with the anti-phosphoRab12 antibodies, followed by reprobing with anti Rab12 antibodies, as indicated. Representative blots are shown. Similar results were obtained in two separate experiments.
Next, it was assessed whether […] any impact on Rab12 interactions with its RILP family effectors. To this end, lysates derived from resting RBL cells or RBL cells that were triggered with either IgE/Ag or Ion/TPA, were subjected to pulldown assays by chimeric proteins consisting of GST-fused to either RILP, RILP-L1, or RILP-L2, or control GST. […] Therefore, under these conditions, the efficacy of Rab12-effector interactions was RILP-L1>RILP>>>RILP-L2.

Molecule: YGRKKRRQRRRGGEACKSTVGVDFKIKT [TAT-125, cell permeable version of peptide 125]
- cellular distribution of the SGs (Rab12-RILP interaction in intact cells) (PC12 cells; PC12 cells expressing CA Rab12 and NPY-mRFP, 100 μM TAT-125): partial scattering of the clustered SGs
- cell morphology and primary cilia of rotenone treated cells (PC12 cells; PC12 cells, 100 nM rotenone 48 h, then 100 μM TAT-125): improves the cell morphology; also recorded: regained their normal appearance and size

Molecule: EACKSTVGVDFKIKT [peptide Rab125, human Rab12 residues 69-83]
- pulldown of Rab12 by GST-RILP [1]: could inhibit

Molecule: CN1CCc2cc(Nc3ncc(C4CC4)c(NCCCNC(=O)C4CCC4)n3)ccc2C1 [MRT68921]
- Ion/TPA-stimulated phosphorylation of Rab12 (Rab12 phosphorylation [2]): significantly inhibited

Molecule: O=C(Nc1cccnc1)c1cc(-c2ccnc(F)c2)ccc1OCc1ccccc1 [GSK2578215A]
- rotenone-induced phosphorylation of Rab12 (Rab12 phosphorylation [3]; 100 nM rotenone 48 h with 1 μM LY333531 or 10 μM GSK2578215A): significantly inhibited
- Ion/TPA-induced phosphorylation of Rab12 (Rab12 phosphorylation [3]; 1 μM LY333531 or 10 μM GSK2578215A 48 h, Ion/TPA 30 min): resistant

Molecule: Cn1c2ccccc2c2c3c(c4c5ccccc5n(CCC#N)c4c21)CNC3=O [Go6976]
- Ion/TPA-stimulated phosphorylation of Rab12 (Rab12 phosphorylation [2]): significantly inhibited

Molecule: ERFNSITSAYYRSAK [peptide Rab121, human Rab12 residues 102-116]
- pulldown of Rab12 by GST-RILP [1]: could inhibit

Molecule: C=C(C)[C@H]1Cc2c(ccc3c2O[C@@H]2COc4cc(OC)c(OC)cc4[C@@H]2C3=O)O1 [rotenone]
- induction of Rab12 phosphorylation (Rab12 phosphorylation [3]; Ion/TPA 30 min or 100 nM rotenone 48 h): induced

B1: GST-RILP-L1 (pGEX-4T-3-RILP-L1) (other, mouse, UniProt Q9JJC6 1-406, looked up)
chain: MEEPLGSPPAALSALEKNVAELTVMDVYDIASLVGHEFERVIDQHGCESIARLMPKVVRVLEILEVLVSRHHVAPELDELRLELDRLRVERMDRIEKERKHQKELELVEDVWRGEAQDLLSQIAQLQEENKQLMTNLNHKDVGFSEEEFQKQEGMSERERQVMKRLKEVVDKQRDELRAKDRELGLKNEDVEALQQQQTRLMKINHDLRHRVTVVEAQGKALIEQKVELEADLQTKEQEMGSLRAELGKLRERLQGEHSQNGEEEEAEIQPQPDGEESISDAEKAALDLKDPNRPRFTLQELRDVLHERNELKSKVFLLQEELAYYKSEEIEEENRIPQPPPITHPRTSPQPESGIKRLFSFFSRDKKRLANTQRPTHIHESFGQWAITQRDDGYTEQGQEALQHL
notes: Immobilized on glutathione agarose beads; not shown: glutathione S-transferase (GST) encoded by the pGEX-4T-3 vector
- fold pulldown efficacy against GST-RILP [4]: 3 fold
- fold pulldown efficacy against GST-RILP-L2 [4]: 9 fold
